# Reference: patent US20050170004A1, “Nanoparticles for drug delivery” (priority 2003, published 2005)
# What was measured:
# [1] = tested on: spleen cells of mice; assay: Immunologic activity ex-vivo in mice: cytokine secretion from splenocytes activated with GA RS (ELISA); conditions: mice fed daily 250 μg GA equivalent; throughout the test period
# Experimental: The ability of GA-Wax-PVP to elicit an immune response with a similar cytokine pattern as glatiramer acetate solution was tested in an ex-vivo model in mice. The study was conducted over a period of 10 days. Mice were fed daily with GA reference standard (GA RS, 250 μg), GA-Wax-PVP (amount equivalent to 250 μg GA) or Wax-PVP as negative control (similar volume and weight of particles as GA-Wax-PVP). During the study period, subsets of animals in each treatment group were sacrificed on days 3, 6 and 10. Spleens were excised and primary cell cultures were prepared. The effect of the treatment was tested by in-vitro activation of splenocytes with GA RS. The response of the cells to the challenge is a measure of previous exposure to GA. Comparing the immune response of the mice fed GA-Wax-PVP to those fed GA RS gives a measure of the relative exposure to GA that each treatment provided. T-cell response was monitored by detection of cytokines secreted from activated cells by ELISA analysis. The levels of IL-2, TGF-β, IL-4, IL-5, IL-10 and IFN-γ were examined.
# [2] = tested on: multiple sclerosis; conditions: cited from earlier work
# [3] = tested on: pancreatin; assay: Protection from enzymatic degradation by pancreatin; type: in vitro ADME; conditions: pancreatin:GA 1:10, 37° C., phosphate buffer pH 6.8
# Experimental: The enzymatic degradation of free GA in solution versus GA in the nano suspension (˜50% bound to the nanoparticles) and versus GA bound to the nanoparticles (˜100% bound) was studied using pancreatin. The GA bound to the nanoparticles was prepared by collecting fractions from the void volume of the Sephadex column as described in Example 1 and pooling the samples. Pancreatin is a mixture of pancreatic proteases consisting of trypsin and chymotrypsins.
# Pancreatin 3.5 mg was dissolved in 10 ml of 0.05M phosphate buffer pH=6.8. Free GA, GA in nano suspension, or fully bound GA, 35 mg as GA, was dissolved or suspended in 10 ml of 0.05M phosphate buffer pH=6.8. 1 ml of the pancreatin solution and 1 ml of the GA solution or suspension were mixed (the ratio of pancreatin to GA was fixed at 1:10) and held at 37° C. At fixed time points the enzymatic reaction was stopped by adding 0.4 ml of 1N HCl. The residual GA content of the mixture was determined by the HPLC method described in Example 1.
# [4] = tested on: EAE in the Lewis rat model; assay: Efficacy in rat experimental autoimmune encephalomyelitis (EAE); type: in vivo; conditions: for % of inhibition vs. DDW: inhibition of group mean score
# From the text: In this experiment the goal was to reduce experimental autoimmune encephalomyelitis (EAE) induced clinical signs in the Lewis rat model. Lewis (LEW) rats are highly susceptible to EAE induced with guinea pig spinal cord homogenate (GPSCH) emulsified in modified complete Freund's adjuvant (CFA). […] Decreased signs of EAE in rats with test materials administered orally during the study is considered a protective effect set forth by the experimental design.
# The animal were induced with the disease by subcutaneous injection of GPSCH emulsion into both hind paws on day 1.
# Initiation of scoring of rats for EAE clinical signs started on day 9. The treatment groups were blinded to the scorer. The treatments or control treatments were started on day 1 and administered daily to day 22. Treatments were administered by oral gavage at a dose and frequency described in Table 2.
# There were ten rats in each group.
# The animals were accessed daily for EAE clinical signs as described in Table 3.
# The number of sick animals in each group were assessed. The day of onset of the symptoms, the duration of days of the symptoms and the number of animals dying were noted and the percentages calculated.
# The maximal scores of each of the animals in each group were summed. The mean maximal score of the group was calculated as follows: […]
# Σ Maximal score of each rat/number of rats in the group.
# The scores of each of the animals in the group were summed and the mean score per day was calculated. The group mean score was calculated as follows: • Σ Total score of each rat per day/number of rats in the group. Results
# [5] = daily oral gavage day 1-22, 2.5 mg GA/ml, 5 ml/kg
substance,measurement,setting,value
Glatiramer acetate [GA],"levels of all the cytokines examined (IL-2, TGF-β, IL-4, IL-5, IL-10, IFN-γ)",[1],similar
same,clinical benefits for MS patients,[2]; 20 mg subcutaneous daily injection,extended clinical benefits
same,burden of disease lesions in magnetic resonance imaging measures,[2]; literature review,significantly reduce
same,relapse rate of multiple sclerosis,[2]; literature review,significantly reduce
same,percent residual GA,[3]; 0 min,100.0 +/− 0.0%
same,percent residual GA,[3]; 1 min,75.1 +/− 3.9%
same,percent residual GA,[3]; 2 min,63.4 +/− 4.8%
same,percent residual GA,"[3]; 3 min, listed as Free GA, 3 min",56.3 +/− 4.7%
same,percent residual GA,"[3]; 3 min, listed as free GA",56%
same,percent residual GA,[3]; 6 min,47.1 +/− 4.4%
same,Group Mean Score,[4]; EAE clinical score 0-6,0.67 ± 0.4
same,Mean Maximal Score,[4]; EAE clinical score 0-6,2.2 ± 1.1
same,Incidence %,[4]; [5],89%
same,Incidence Total N,[4]; [5],8/9
same,Mean Disease Duration,[4]; [5],3.2 ± 1.6 days
same,Mean Onset,[4]; [5],13.0 ± 2.5 days
same,Mortality %,[4]; [5],0%
same,Mortality Total N,[4]; [5],0/10
same,Incidence Total N,"[4]; daily oral gavage day 1-22, 2.5 mg GA/ml, 5 ml/kg, listed as Glatiramer acetate oral solution",eight of nine
same,Daily Mean Score,"[4]; day 9, EAE clinical score 0-6",0.0
same,Daily Mean Score,"[4]; day 10, EAE clinical score 0-6",0.0
same,Daily Mean Score,"[4]; day 11, EAE clinical score 0-6",0.2
same,Daily Mean Score,"[4]; day 12, EAE clinical score 0-6",1.3
same,Daily Mean Score,"[4]; day 13, EAE clinical score 0-6",2.0
same,Daily Mean Score,"[4]; day 14, EAE clinical score 0-6",1.8
same,Daily Mean Score,"[4]; day 15, EAE clinical score 0-6",1.2
same,Daily Mean Score,"[4]; day 16, EAE clinical score 0-6",0.1
same,Daily Mean Score,"[4]; day 17, EAE clinical score 0-6",0.0
same,Daily Mean Score,"[4]; day 18, EAE clinical score 0-6",0.0
same,AUC of daily mean score,[4]; days 9-18,6.6
same,% of inhibition vs. DDW,[4],38%
same,% of inhibition vs. DDW,[4]; listed as glatiramer acetate oral solution,38%
same,effect on disease severity of EAE (conclusion),"[4]; oral administration, in words",inhibit the disease severity of EAE in rats
